Experimental data as given in ChEMBL document CHEMBL1201862, “PubChem BioAssay data set” (2004).
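Exposure lasted 48 hours, with cells grown in 96-well plates and compounds tested at five concentrations. GI50 = concentration required for 50% inhibition of growth.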 Activity calls are given as the source filed them. No stated cut-off is given here; in the data, active = GI50 up to about 1.1 µM and inactive = higher.

Tests used:
Assay in all cases: NCI anticancer screen, dose series, 48 h
NCI-H522 = system: NCI-H522
UO-31 = system: UO-31
COLO 205 = system: COLO 205
DMS-114 = system: DMS-114
HOP-18 = system: HOP-18
SNB-75 = system: SNB-75
OVCAR-8 = system: OVCAR-8
SW-620 = system: SW-620
A498 = system: A498
NCI-H23 = system: NCI-H23
NCI-H460 = system: NCI-H460
LOX IMVI = system: LOX IMVI
HCT-15 = system: HCT-15
SK-OV-3 = system: SK-OV-3
KM12 = system: KM12
EKVX = system: EKVX
NCI-H226 = system: NCI-H226
U-251 = system: U-251
XF498 = system: XF498
DLD-1 = system: DLD-1
HCT-116 = system: HCT-116
KM-20L2 = system: KM-20L2
CCRF-CEM = system: CCRF-CEM
SN12C = system: SN12C
OVCAR-4 = system: OVCAR-4
SK-MEL-28 = system: SK-MEL-28
UACC-257 = system: UACC-257
Malme-3M = system: Malme-3M
HOP-92 = system: HOP-92
A549 = system: A549
HL-60 = system: HL-60
SK-MEL-2 = system: SK-MEL-2
UACC-62 = system: UACC-62
MCF7 = system: MCF7
SNB-78 = system: SNB-78
K562 = system: K562
OVCAR-3 = system: OVCAR-3
RXF 393 = system: RXF 393
SNB-19 = system: SNB-19
DMS-273 = system: DMS-273
CAKI-1 = system: CAKI-1
SF-295 = system: SF-295
NCI/ADR-RES = system: NCI/ADR-RES
SF-539 = system: SF-539
SK-MEL-5 = system: SK-MEL-5
MOLT-4 = system: MOLT-4
SF-268 = system: SF-268
IGROV-1 = system: IGROV-1
OVCAR-5 = system: OVCAR-5
M19-MEL = system: M19-MEL
HOP-62 = system: HOP-62
HCC 2998 = system: HCC 2998
RPMI-8226 = system: RPMI-8226
HT-29 = system: HT-29

For O=C(Nc1ccc(C2=NCCN2)cc1)c1cncc(C(=O)Nc2ccc(C3=NCCN3)cc2)c1, the GI50 (NCI-H522) was > 100 µM (inactive), the GI50 (UO-31) was > 100 µM (inactive) and the GI50 (COLO 205) was > 100 µM (inactive). For the same compound, the GI50 (DMS-114) was > 100 µM (inactive), the GI50 (HOP-18) was > 100 µM (inactive) and the GI50 (SNB-75) was > 31.6 µM (inactive). For the same compound, the GI50 (OVCAR-8) was > 100 µM (inactive), the GI50 (SW-620) was > 100 µM (inactive) and the GI50 (A498) was > 100 µM (inactive). For the same compound, the GI50 (NCI-H23) was > 100 µM (inactive), the GI50 (NCI-H460) was > 100 µM (inactive) and the GI50 (LOX IMVI) was > 100 µM (inactive). For the same compound, the GI50 (HCT-15) was greater than 100 µM, the GI50 (SK-OV-3) was > 100 µM (inactive) and the GI50 (KM12) was > 100 µM (inactive). The GI50 (EKVX) was > 100 µM (inactive), the GI50 (NCI-H226) was > 94.6 µM (inactive) and the GI50 (U-251) was > 100 µM (inactive). The GI50 (XF498) was > 100 µM (inactive), the GI50 (DLD-1) was > 100 µM (inactive) and the GI50 (HCT-116) was > 100 µM (inactive). For the same compound, the GI50 (KM-20L2) was > 100 µM (inactive), the GI50 (CCRF-CEM) was > 100 µM (inactive) and the GI50 (SN12C) was > 100 µM (inactive). For the same compound, the GI50 (OVCAR-4) was > 100 µM (inactive), the GI50 (SK-MEL-28) was > 31.6 µM (inactive) and the GI50 (UACC-257) was > 100 µM (inactive). For the same compound, the GI50 (Malme-3M) was > 100 µM (inactive), the GI50 (HOP-92) was > 100 µM (inactive) and the GI50 (A549) was > 100 µM (inactive). The GI50 (HL-60) was > 100 µM (inactive), the GI50 (SK-MEL-2) was > 100 µM (inactive) and the GI50 (UACC-62) was > 100 µM (inactive). The GI50 (MCF7) was > 100 µM (inactive), the GI50 (SNB-78) was > 100 µM (inactive) and the GI50 (K562) was > 100 µM (inactive). For the same compound, the GI50 (OVCAR-3) was > 100 µM (inactive), the GI50 (RXF 393) was > 100 µM (inactive) and the GI50 (SNB-19) was > 100 µM (inactive). The GI50 (DMS-273) was > 100 µM (inactive), the GI50 (CAKI-1) was > 100 µM (inactive) and the GI50 (SF-295) was > 100 µM (inactive). For the same compound, the GI50 (NCI/ADR-RES) was > 100 µM (inactive), the GI50 (SF-539) was > 100 µM (inactive) and the GI50 (SK-MEL-5) was > 100 µM (inactive). The GI50 (MOLT-4) was > 100 µM (inactive), the GI50 (SF-268) was > 31.6 µM (inactive) and the GI50 (IGROV-1) was > 100 µM (inactive). For the same compound, the GI50 (OVCAR-5) was > 100 µM (inactive), the GI50 (M19-MEL) was > 100 µM (inactive) and the GI50 (HOP-62) was > 100 µM (inactive). For the same compound, the GI50 (HCC 2998) was > 100 µM (inactive), the GI50 (RPMI-8226) was > 100 µM (inactive) and the GI50 (HT-29) was > 100 µM (inactive).
